Results reported in patent publication US11913882B2, “Determination of the supramolecular organization of encapsulated molecules by luminescence lifetime analysis” (SCUOLA NORMALE SUPERIORE, priority 2020, dated 2024).

Test: Fluorescence lifetime analysis (phasor-FLIM) of DOX organization states and Doxoves®
Assay type: physicochemical
Excerpt: The procedure was applied to Doxoves® as follows: • 1) Based on previous knowledge, at least three different supramolecular organizations of DOX molecules are supposed to contribute to the overall nature of Doxoves® nanocarriers: crystallized DOX, free DOX, and DOX eventually associated with the nanocarrier surface, i.e. with lipids. These three forms are defined here as standards. • 2) The three standards identified at step 1 are obtained and measured. As a preliminary step, each standard is produced and dissolved in a buffer that is the same as that of the test substance. In the present case, manufacturer's indications were followed to produce the correct buffer composition. In general, substances having an impact on lifetime analysis of the test substance, e.g. Doxoves®, shall be also present in the standard substances. First, the phasor signature of crystalized DOX and free-in-solution DOX are measured: two mono-exponential lifetimes are obtained: 0.2 ns for the crystal and 1 ns for free DOX, respectively. […] Then, by spin-coating simil-Doxoves® nanoparticles on a glass surface. This procedure destroys mechanically the liposomal particles and recovers the liposomal membranes on the glass. […] It is important to note that lifetime measuring conditions, e.g. temperature, pH etc., shall be the same for measures on the test substance and measures on the standard substances. • 5) Doxoves® lifetime data are analysed by the phasor approach. In more detail, the phasor is calculated by using a dedicated routine in the SimFCS software (Laboratory for Fluorescence Dynamics, University of California, Irvine). […] Simple algebraic rules are adopted to extract quantitatively the relative contribution (fractional intensity) of each standard (by a dedicated routine in SimFCS software). • It may still be under question whether there may be more than three organization states, e.g. four defining a trapezoidal shape within the universal circle and circumscribing the location of the test substance lifetime decay within the universal circle. A final control experiment was thus performed to corroborate the hypothesis that only three standard components (and NOT more than three) contribute to the overall organization of encapsulated DOX. In brief, the lifetime of simil-Doxoves® in solution is measured. If only three components contribute to Doxoves® organization, simil-Doxoves® is expected to be a linear combination of just free DOX and DOX associated to nanocarrier lipids, thus lying along the segment that connects these two states.

[1] = within tested nanoparticles, FIG. 4, phasor plot triangle

fluorescence lifetime of free DOX in solution, mono-exponential (pure standard, free in water/buffer, phasor approach): 1 ns | fluorescence lifetime of crystalized DOX (purified rod-shaped crystals), mono-exponential (pure standard, excitation 470 nm, emission 500-650 nm, phasor approach): 0.2 ns | fractional intensity of DOX conjugate with the lipids [1]: 46% | fractional intensity of DOX organized into nanorod crystals [1]: 36% | fractional intensity of free DOX [1]: 18%
SMILES: COc1cccc2c1C(=O)c1c(O)c3c(c(O)c1C2=O)C[C@@](O)(C(=O)CO)C[C@@H]3O[C@H]1C[C@H](N)[C@H](O)[C@H](C)O1 [DOX, doxorubicin]
